# Experimental data from patent US10670605B2, “Cysteine reactive probes and uses thereof” (The Scripps Research Institute, priority 2015, dated 2020).
# Where “and” joins values, the source holds several entries; their conditions need not be identical. Equal entries are not always repeated.
# Key:
# Assay in all cases: Competitive isoTOP-ABPP, cell lysates;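 for isoTOP-ABPP reactivity profile ratio, O00170 C122: Heavy/light ratio DMSO over fragment-treated so higher means more cysteine engagement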;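 for isoTOP-ABPP reactivity profile ratio, Q99873 C109: Heavy/light ratio DMSO over fragment-treated so higher means more cysteine engagement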
# Format in all cases: binding
# [1] = biological target: PRMT1 C109 (Q99873) (Homo sapiens, UniProt Q99873); details: for R value (DMSO/fragment): 250 μM, in vitro;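 for isoTOP-ABPP reactivity profile ratio, Q99873 C109: Heavy/light ratio DMSO over fragment-treated so higher means more cysteine engagement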
# [2] = biological target: T1, AIP C122 (O00170) (Homo sapiens, UniProt O00170); details: for R value (DMSO/fragment): 250 μM, in vitro;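 for isoTOP-ABPP reactivity profile ratio, O00170 C122: Heavy/light ratio DMSO over fragment-treated so higher means more cysteine engagement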
# T1 sequence (O00170 1-330): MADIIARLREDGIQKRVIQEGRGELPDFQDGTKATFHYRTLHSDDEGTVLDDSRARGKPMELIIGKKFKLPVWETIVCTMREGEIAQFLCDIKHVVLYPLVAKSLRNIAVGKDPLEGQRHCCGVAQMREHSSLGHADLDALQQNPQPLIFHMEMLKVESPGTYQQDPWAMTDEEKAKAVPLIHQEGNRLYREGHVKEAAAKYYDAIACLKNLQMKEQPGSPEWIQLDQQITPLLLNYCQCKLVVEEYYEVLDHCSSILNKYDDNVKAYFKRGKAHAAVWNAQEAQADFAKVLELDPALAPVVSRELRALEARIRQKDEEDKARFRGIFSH
# [3] = biological target: T2, UCHL3 C95 (P15374) (Homo sapiens, UniProt P15374)
# T2 sequence (P15374 1-230): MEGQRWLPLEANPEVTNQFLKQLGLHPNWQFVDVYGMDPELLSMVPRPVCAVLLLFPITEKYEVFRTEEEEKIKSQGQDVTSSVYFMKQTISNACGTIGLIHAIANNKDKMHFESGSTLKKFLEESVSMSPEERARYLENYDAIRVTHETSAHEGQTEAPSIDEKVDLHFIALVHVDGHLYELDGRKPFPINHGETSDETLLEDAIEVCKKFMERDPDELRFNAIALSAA
# [4] = biological target: SAMHD1 C522 (Q9Y3Z3) (Homo sapiens, UniProt Q9Y3Z3)
# [5] = biological target: SMARCC2 C145 (Q8TAQ2) (Homo sapiens, UniProt Q8TAQ2)
# [6] = biological target: UBE2L3 C86 (P68036) (Homo sapiens, UniProt P68036); details: for isoTOP-ABPP reactivity profile ratio, P68036_C86: 500 μm
# [7] = biological target: GSTP1 C48 (P09211) (Homo sapiens, UniProt P09211); details: for R value (DMSO/fragment): 250 μM, in vitro
# [8] = biological target: GNB2L1 C182 (P63244) (Homo sapiens, UniProt P63244)
# [9] = biological target: T3, PDIA6 C190 (Q15084) (Homo sapiens, UniProt Q15084); details: for R value (DMSO/fragment): 250 μM, in vitro
# T3 sequence (Q15084 20-440): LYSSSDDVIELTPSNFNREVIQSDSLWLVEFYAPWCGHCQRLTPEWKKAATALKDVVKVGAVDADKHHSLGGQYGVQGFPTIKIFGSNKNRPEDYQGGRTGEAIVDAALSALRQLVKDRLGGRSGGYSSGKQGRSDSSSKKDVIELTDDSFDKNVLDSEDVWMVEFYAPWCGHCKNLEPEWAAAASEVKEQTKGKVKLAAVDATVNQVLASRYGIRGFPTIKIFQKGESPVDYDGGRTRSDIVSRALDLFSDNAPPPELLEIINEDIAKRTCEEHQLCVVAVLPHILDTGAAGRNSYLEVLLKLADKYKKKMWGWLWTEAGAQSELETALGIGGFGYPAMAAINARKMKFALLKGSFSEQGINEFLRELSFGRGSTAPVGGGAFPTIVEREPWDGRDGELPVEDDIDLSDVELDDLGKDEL
# [10] = biological target: ZNF217 C286 (O75362) (Homo sapiens, UniProt O75362)
smiles,measurement,setting,value
C=CC(=O)N(Cc1cccnc1)c1ccc(Oc2ccccc2)c(C(F)(F)F)c1 [compound 15],"isoTOP-ABPP ratio, Q99873_C109","[1]; 500 μM, invitro, 231",0.9
same,"isoTOP-ABPP ratio (reactivity profile), Q99873_C109",[1]; 500 μm in-vitro ramos,1.2
same,"isoTOP-ABPP ratio (reactivity profile), O00170_C122",[2]; 500 μm in-vitro ramos,1.4
same,"isoTOP-ABPP ratio (reactivity profile), P15374_C95",[3]; 500 μm in-vitro ramos,0.7
same,"isoTOP-ABPP ratio (reactivity profile), Q9Y3Z3_C522",[4]; 500 μm in-vitro ramos,1.6
same,"isoTOP-ABPP ratio (reactivity profile), Q8TAQ2_C145",[5]; 500 μm in-vitro ramos,1.2
same,"isoTOP-ABPP ratio (reactivity profile), P68036_C86",[6]; 500 μm in-vitro ramos,1.3
same,"isoTOP-ABPP ratio, P09211_C48","[7]; 500 μM, invitro, 231",2.5
same,"isoTOP-ABPP ratio (reactivity profile), P09211_C48",[7]; 500 μm in-vitro ramos,1.3
same,"isoTOP-ABPP ratio (reactivity profile), P63244_C182",[8]; 500 μm in-vitro ramos,1.3
same,"isoTOP-ABPP ratio, Q15084_C190","[9]; 500 μM, invitro, 231",0.9
same,"isoTOP-ABPP ratio (reactivity profile), Q15084_C190",[9]; 500 μm in-vitro ramos,1.2
COc1cc(NC(=O)CCl)cc(OC)c1 [compound 43],"isoTOP-ABPP reactivity profile ratio, Q99873_C109","[1]; 500 μm, in-vitro_ramos",1.2
same,"isoTOP-ABPP reactivity profile ratio, Q99873_C109","[1]; 500 μm, in-vitro_ramos_231",1.4
same,"isoTOP-ABPP reactivity profile ratio, O00170_C122","[2]; 500 μm, in-vitro_ramos",2.1
same,"isoTOP-ABPP reactivity profile ratio, P15374_C95","[3]; 500 μm, in-vitro_ramos",20.0
same,"isoTOP-ABPP reactivity profile ratio, Q9Y3Z3_C522","[4]; 500 μm, in-vitro_ramos_231",2.2
same,"isoTOP-ABPP reactivity profile ratio, Q8TAQ2_C145","[5]; 500 μm, in-vitro_ramos_231",20.0
same,"isoTOP-ABPP reactivity profile ratio, P68036_C86",[6]; in-vitro_ramos,1.7
same,"isoTOP-ABPP reactivity profile ratio, P68036_C86",[6]; in-vitro_ramos_231,1.1
same,"isoTOP-ABPP reactivity profile ratio, P09211_C48","[7]; 500 μm, in-vitro_ramos",2.2
same,"isoTOP-ABPP reactivity profile ratio, P09211_C48","[7]; 500 μm, in-vitro_ramos_231",4.1
same,"isoTOP-ABPP reactivity profile ratio, P63244_C182","[8]; 500 μm, in-vitro_ramos",0.9
same,"isoTOP-ABPP reactivity profile ratio, P63244_C182","[8]; 500 μm, in-vitro_ramos_231",0.9
same,"isoTOP-ABPP reactivity profile ratio, O75362_C286","[10]; 500 μm, in-vitro_ramos",1.2
same,"isoTOP-ABPP reactivity profile ratio, O75362_C286","[10]; 500 μm, in-vitro_ramos_231",1.9
same,"isoTOP-ABPP reactivity profile ratio, Q15084_C190","[9]; 500 μm, in-vitro_ramos_231",20.0
CC(C)CCOCCNC(=O)CCl [compound 27],"isoTOP-ABPP ratio (reactivity profile), Q99873_C109",[1]; 500 μm in-vitro ramos,1.0
same,"isoTOP-ABPP ratio (reactivity profile), Q99873_C109",[1]; 500 μm in-vitro ramos_231,0.7 and 0.9
same,"isoTOP-ABPP ratio (reactivity profile), O00170_C122",[2]; 500 μm in-vitro ramos,1.0
same,"isoTOP-ABPP ratio (reactivity profile), O00170_C122",[2]; 500 μm in-vitro ramos_231,0.4
same,"isoTOP-ABPP ratio (reactivity profile), P15374_C95",[3]; 500 μm in-vitro ramos,1.0
same,"isoTOP-ABPP ratio (reactivity profile), P15374_C95",[3]; 500 μm in-vitro ramos_231,0.4
same,"isoTOP-ABPP ratio (reactivity profile), Q9Y3Z3_C522",[4]; 500 μm in-vitro ramos,0.9
same,"isoTOP-ABPP ratio (reactivity profile), Q9Y3Z3_C522",[4]; 500 μm in-vitro ramos_231,0.8 and 1.0
same,"isoTOP-ABPP ratio (reactivity profile), Q8TAQ2_C145",[5]; 500 μm in-vitro ramos,1.2
same,"isoTOP-ABPP ratio (reactivity profile), Q8TAQ2_C145",[5]; 500 μm in-vitro ramos_231,0.9
same,"isoTOP-ABPP ratio (reactivity profile), P68036_C86",[6]; 500 μm in-vitro ramos_231,1.2 and 0.9
same,"isoTOP-ABPP ratio (reactivity profile), P09211_C48",[7]; 500 μm in-vitro ramos,1.0
same,"isoTOP-ABPP ratio (reactivity profile), P09211_C48",[7]; 500 μm in-vitro ramos_231,1.3 and 1.0
same,"isoTOP-ABPP ratio (reactivity profile), P63244_C182",[8]; 500 μm in-vitro ramos,1.1
same,"isoTOP-ABPP ratio (reactivity profile), P63244_C182",[8]; 500 μm in-vitro ramos_231,1.0 and 0.8
same,"isoTOP-ABPP ratio (reactivity profile), O75362_C286",[10]; 500 μm in-vitro ramos,1.0
same,"isoTOP-ABPP ratio (reactivity profile), Q15084_C190",[9]; 500 μm in-vitro ramos,1.1
same,"isoTOP-ABPP ratio (reactivity profile), Q15084_C190",[9]; 500 μm in-vitro ramos_231,0.9
C=CC(=O)N1CCC(c2noc3ccc(F)cc23)CC1 [compound 37],"isoTOP-ABPP reactivity ratio, Q99873_C109","[1]; 500 μm, in-vitro_ramos",1.0
same,"isoTOP-ABPP reactivity ratio, Q9Y3Z3_C522","[4]; 500 μm, in-vitro_ramos",0.7
same,"isoTOP-ABPP reactivity ratio, P09211_C48","[7]; 500 μm, in-vitro_ramos",1.2
same,"isoTOP-ABPP reactivity ratio, P63244_C182","[8]; 500 μm, in-vitro_ramos",0.9
same,"isoTOP-ABPP reactivity ratio, O75362_C286","[10]; 500 μm, in-vitro_ramos",0.9
same,"isoTOP-ABPP reactivity ratio, Q15084_C190","[9]; 500 μm, in-vitro_ramos",1.1
COc1ccc(C2CC(c3cccs3)=NN2C(=O)CCl)cc1 (centres unmarked) [compound 4],R value (DMSO/fragment),[1]; MDA-MB-231,1.1
same,R value (DMSO/fragment),[1]; Ramos,0.2
same,R value (DMSO/fragment),[2]; MDA-MB-231,2.5
same,R value (DMSO/fragment),[2]; Ramos,0.3
same,R value (DMSO/fragment),"[3]; 250 μM, in vitro, Ramos",0.9
same,R value (DMSO/fragment),"[4]; 250 μM, in vitro, MDA-MB-231",1.5
same,R value (DMSO/fragment),"[5]; 250 μM, in vitro, MDA-MB-231",1.3
same,R value (DMSO/fragment),"[6]; 250 μM, in vitro, MDA-MB-231",1.2
same,R value (DMSO/fragment),[7]; MDA-MB-231,3.2
same,R value (DMSO/fragment),[7]; Ramos,0.5
same,R value (DMSO/fragment),"[8]; 250 μM, in vitro, MDA-MB-231",0.9
same,R value (DMSO/fragment),"[10]; 250 μM, in vitro, MDA-MB-231",1.7
same,R value (DMSO/fragment),[9]; MDA-MB-231,1.8
same,R value (DMSO/fragment),[9]; Ramos,1.2
